Measured values from patent publication US9162979B2, “1,5-Diary1-2-alkylpyrrole-3-substituted nitro esters, selective COX-2 inhibitors and nitric oxide donors” (ROTTAPHARM BIOTECH S.R.L., priority 2010, dated 2015).

Columns and labels:
[1] = system: isolated rings of thoracic aorta; assay: Evaluation of release of NO: vasorelaxing activity on endothelium-denuded aortic rings contracted with KCl; design: species or system rat; key to NO release properties Emax (maximum vasorelaxing effect) / NO release properties pIC50 (vasorelaxing potency): S.E: Scarcely Effective: it is not possible to detect NO release comparable to the other compounds mentioned here; settings: for IC50 / Emax: Rattus norvegicus; for IC50: concentration reducing contractile tone induced by 20 mM KCl by half, read-out: NO release properties pIC50 (vasorelaxing potency) (converted); for Emax / NO release properties Emax (maximum vasorelaxing effect): relative to contractile tone induced by 20 mM KCl, 1 nM-10 μM; for Emax: read-out: NO release properties Emax (maximum vasorelaxing effect)
Method in brief: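 Endothelium-denuded male Wistar rat thoracic aorta rings (2 g preload, Tyrode, 37 °C, 95% O2/5% CO2) precontracted with 20 mM KCl, then given cumulative test compound (1 nM–10 μM). Relaxation as % of KCl tone; Emax and pIC50 reported as mean±SE of 5–10 experiments. Also repeated with 1 μM ODQ.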

rat liver homogenate [2] = settings: 1 mM
Description: (§3) By evaluating the time-dependent increase in nitrite concentrations in the liver homogenate, it was possible to extrapolate two descriptive parameters:
(§4) Time (in minutes) required for an amount of nitrite to be released by the test compound equal to half its maximum release.

rat liver homogenate [3] = assay: Evaluation of release of nitrites in hepatic homogenate; settings: for Maximum release (%): nitrite after 4 hours, 1 mM, 37° C., as percentage of SNP
Description: as §3, §4

COX-2 = COX-2 (Mus musculus (Mouse), UniProt Q05769); assay: Evaluation of COX-2 activity: PGE2 production in LPS-stimulated J774 cells; format: cell-based, murine; settings: J774 cells stimulated 24 hours with LPS 10 μg/mL; PGE2 by radio-immunological assay; read-out: Cyclooxygenase inhibition COX-2 IC50
Method in brief: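 Murine J774 macrophages switched to serum-free medium before stimulation; PGE2 in supernatants measured by radioimmunoassay, triplicate wells per condition. IC50 with 95% intervals from sigmoidal variable-slope dose-response fit.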

[4] = system: carrageenan-induced inflammatory state in the rat; assay: Carrageenan test: nociceptive threshold (weight supported); format: in vivo; settings: for Weight supported (g) Before treatment: baseline before treatment
Description: (§1) Male Swiss albino mice (23-25 g) and Wistar rats (150-200 g) were used.
The nociceptive threshold in the rat was determined with an analgesiometer, as described by Leighton et al. (Br. J. Pharmacol., 1988, 93, 553-560), the pressure was measured before the treatment and after 30 and 60 min. To reproduce the inflammatory state in the rat, carrageenan was administered i.p. (0.1 ml, 1%) 4 h before the test.
(§2) The test was performed using 6 animals per group, all the compounds were administered per os, 30 min before the test. The carrageenan is administered 2 h before the test.

[5] = system: rat paw oedema induced by carrageenan; assay: Volume of oedema test (carrageenan); format: in vivo
Description: The rat paw volumes were measured using a pletismometer. Four hours after injecting carrageenan 1.0% (0.1 ml injection), the volume of the right hind-paw was measured and compared with that of controls treated with a saline/carrageenan solution. The rats were administered the test compounds 3.5 hours after the carrageenan. The results are given as paw volume expressed in ml. The results relating to the analgesic and anti-oedemic activity in the carrageenan test for some representative compounds of the invention are shown in Table 11.
as §2

[6] = system: carrageenan-induced inflammatory state in the rat; assay: Carrageenan test: nociceptive threshold (weight supported); format: in vivo; settings: 20 mg/kg per os
[7] = system: mouse abdominal contraction (writhing) induced by acetic acid; assay: Abdominal constriction test induced by acetic acid; format: in vivo
Description: as §1
The antinociceptive activity was determined by the mouse abdominal contraction test using acetic acid (0.6%), which induces writhing, according to Koster's method (Fed. Proc., 1959, 18, 412-418). The number of stretching movements was counted for 10 minutes, starting 5 minutes after injection of acetic acid. The results relating to analgesic activity in the abdominal constriction test with representative compounds of the invention are shown in Table 10.
The test was carried out using 10 animals in the treated group and 20 in the control group (CMC); all the compounds were administered per os with the exception of the compound of Example 8, which was administered i.p.

[8] = system: MIA-induced osteoarthritis; assay: Chronic pain from MIA-induced osteoarthritis; format: in vivo, rat; settings: 20 mg/kg per os twice daily for 14 days; for Weight supported (g) Before treatment: baseline before treatment
Description: The compounds are administered per os at a dose of 20 mg/kg twice daily for 14 days. Monosodium iodoacetate (MIA), 2 mg in 25 μL is injected in the left knee of anaesthetized rats, the test is carried out according to the literature. Each experiment represents the mean value for 5 animals.

Chain of COX-2 (Q05769 18-604): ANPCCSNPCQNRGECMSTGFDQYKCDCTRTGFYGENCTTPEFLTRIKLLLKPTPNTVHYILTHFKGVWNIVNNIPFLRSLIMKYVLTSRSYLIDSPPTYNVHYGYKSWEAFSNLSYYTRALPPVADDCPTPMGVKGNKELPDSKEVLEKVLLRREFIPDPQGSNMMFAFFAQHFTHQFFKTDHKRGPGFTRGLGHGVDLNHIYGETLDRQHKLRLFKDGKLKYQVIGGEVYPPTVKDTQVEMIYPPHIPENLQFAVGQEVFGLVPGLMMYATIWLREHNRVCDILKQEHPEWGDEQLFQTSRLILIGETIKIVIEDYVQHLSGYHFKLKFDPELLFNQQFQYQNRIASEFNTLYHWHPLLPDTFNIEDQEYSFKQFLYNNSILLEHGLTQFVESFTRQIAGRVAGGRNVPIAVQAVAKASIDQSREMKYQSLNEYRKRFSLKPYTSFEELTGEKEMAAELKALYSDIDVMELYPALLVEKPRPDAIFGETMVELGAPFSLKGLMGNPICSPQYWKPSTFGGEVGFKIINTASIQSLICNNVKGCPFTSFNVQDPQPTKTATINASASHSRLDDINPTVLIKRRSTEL

## Cc1c(CC(=O)OCCO[N+](=O)[O-])cc(-c2ccc(S(C)(=O)=O)cc2)n1-c1ccc(F)cc1 [Example 2, 2-(Nitrooxy)ethyl-2-[(1-(4-fluorophenyl)-2-methyl-5-(4-(methylsulphonyl)phenyl)-1H-pyrrol-3-yl)]acetate]
[1]
  IC50: 3.47 µM
  Emax: 58 ± 5%
Rat liver homogenate [2]
  T ½: 68.7 ± 12.5 min
Rat liver homogenate [3]
  Maximum release (%): 26 ± 7%

## Cc1c(CCOCCCO[N+](=O)[O-])cc(-c2ccc(S(C)(=O)=O)cc2)n1-c1ccc(F)cc1 [Example 41, 3-[2-[2-(1-(4-Fluorophenyl)-2-methyl-5-(4-methylsulphonylphenyl)-1H-pyrrol-3-yl)]ethoxy]propyl Nitrate]
COX-2
  IC50: 190 nM
[1]
  NO release properties Emax (maximum vasorelaxing effect): S.E.
[4]; 20 mg/kg per os
  Weight supported (g) After treatment 30 min: 49.2 ± 3.7 g
  Weight supported (g) After treatment 60 min: 50.7 ± 3.8 g
  Weight supported (g) Before treatment: 30.9 ± 2.8 g
[5]; 20 mg/kg per os
  Oedema Volume: 1.85 ± 0.08 mL
[6]
  Weight supported after 120 min: 45.2±4.1

## Cc1c(CCOCCO[N+](=O)[O-])cc(-c2ccc(S(C)(=O)=O)cc2)n1-c1cccc(F)c1 [Example 38, 2-[2-[2-(1-(3-Fluorophenyl)-2-methyl-5-(4-methylsulphonylphenyl)-1H-pyrrol-3-yl]ethoxy]ethyl Nitrate]
COX-2
  IC50: 28 nM
[1]
  IC50: 4.79 µM
  Emax: 60 ± 4%
[7]; 40 mg/kg per os
  N writhes: 25.3 ± 3.6
Rat liver homogenate [2]
  T ½: 60.7 ± 8.7 min
Rat liver homogenate [3]
  Maximum release (%): 28 ± 3%

## Cc1c(CCOCCO)cc(-c2ccc(S(C)(=O)=O)cc2)n1-c1ccc(F)cc1 [Example 37-II]
[7]; 40 mg/kg per os
  N writhes: 18.2 ± 3.1
[4]; 20 mg/kg per os
  Weight supported (g) After treatment 30 min: 46.8 ± 3.7 g
  Weight supported (g) After treatment 60 min: 38.7 ± 3.3 g
  Weight supported (g) Before treatment: 32.5 ± 3.4 g
[5]; 20 mg/kg per os
  Oedema Volume: 2.08 ± 0.07 mL
[8]
  Weight supported (g) After treatment 30 min: 51.2 ± 3.9 g
  Weight supported (g) After treatment 4 h: 50.3 ± 3.8 g
  Weight supported (g) After treatment 24 h: 48.1 ± 3.3 g
  Weight supported (g) After treatment 36 h: 47.4 ± 3.3 g
  Weight supported (g) Before treatment: 33.5 ± 2.6 g

## Cc1c(CCOCCO[N+](=O)[O-])cc(-c2ccc(S(C)(=O)=O)cc2)n1-c1ccc(F)c(F)c1 [Example 39, 2-[2-[2-(1-(3,4-Difluorophenyl)-2-methyl-5-(4-methylsulphonylphenyl)-1H-pyrrol-3-yl]ethoxy]ethyl Nitrate]
COX-2
  IC50: 920 nM
[1]
  Emax: 43 ± 6%
[7]; 20 mg/kg per os
  N writhes: 26.3 ± 3.4
Rat liver homogenate [2]
  T ½: 68.2 ± 8.5 min
Rat liver homogenate [3]
  Maximum release (%): 30 ± 1%

## Cc1c(CCOCCO[N+](=O)[O-])cc(-c2ccc(S(C)(=O)=O)cc2)n1-c1ccc(F)cc1 [Example 37, 2-[2-[2-(1-(4-Fluorophenyl)-2-methyl-5-(4-methylsulphonylphenyl)-1H-pyrrol-3-yl]ethoxy]ethyl Nitrate]
COX-2
  IC50: 14 nM
[1]
  Emax: 49 ± 3%
[7]; 10 mg/kg per os
  N writhes: 19.1 ± 2.7
[7]; 20 mg/kg per os
  N writhes: 15.2 ± 3.3
[4]; 10 mg/kg per os
  Weight supported (g) After treatment 30 min: 55.1 ± 4.7 g
  Weight supported (g) After treatment 60 min: 52.6 ± 4.0 g
  Weight supported (g) Before treatment: 34.7 ± 2.7 g
[5]; 10 mg/kg per os
  Oedema Volume: 1.87 ± 0.07 mL
[8]
  Weight supported (g) After treatment 30 min: 45.1 ± 3.7 g
  Weight supported (g) After treatment 4 h: 39.1 ± 3.5 g
  Weight supported (g) After treatment 24 h: 33.8 ± 3.7 g
  Weight supported (g) Before treatment: 34.6 ± 3.1 g
Rat liver homogenate [2]
  T ½: 42.8 ± 6.9 min
Rat liver homogenate [3]
  Maximum release (%): 25 ± 3%

## Cc1c(CCOCCCO[N+](=O)[O-])cc(-c2ccc(S(C)(=O)=O)cc2)n1-c1cccc(F)c1 [Example 42, 3-[2-(1-(3-Fluorophenyl)-2-methyl-5-(4-methylsulphonylphenyl)-1H-pyrrol-3-yl)ethoxy]propyl Nitrate]
COX-2
  IC50: 430 nM
[1]
  NO release properties Emax (maximum vasorelaxing effect): S.E.
Rat liver homogenate [2]
  T ½: 84.4 ± 11.9 min
Rat liver homogenate [3]
  Maximum release (%): 52 ± 8%

## Cc1c(CC(=O)OCCO[N+](=O)[O-])cc(-c2ccc(S(C)(=O)=O)cc2)n1-c1cccc(F)c1 [Example 3, 2-(Nitrooxy)ethyl-2-[(1-(3-fluorophenyl)-2-methyl-5-(4-methylsulphonylphenyl)-1H-pyrrol-3-yl)]acetate]
COX-2
  IC50: 19 nM
[1]
  IC50: 0.331 µM
  Emax: 69 ± 4%
[7]; 20 mg/kg per os
  N writhes: 17.1 ± 2.3
[7]; 40 mg/kg per os
  N writhes: 9.4 ± 2.5
[4]; 40 mg/kg per os
  Weight supported (g) After treatment 30 min: 54.1 ± 3.7 g
  Weight supported (g) After treatment 60 min: 38.7 ± 3.1 g
  Weight supported (g) Before treatment: 32.6 ± 2.7 g
[5]; 40 mg/kg per os
  Oedema Volume: 2.17 ± 0.08 mL

## COc1ccc2cc([C@H](C)C(=O)OCCCCO[N+](=O)[O-])ccc2c1 [Naproxcinod, naproxcinod, reference compound]
[1]
  IC50: 5.25 µM
  Emax: 62 ± 4%
[4]; 10 mg/kg per os
  Weight supported (g) After treatment 30 min: 47.9 ± 3.5 g
  Weight supported (g) After treatment 60 min: 46.2 ± 3.8 g
  Weight supported (g) Before treatment: 33.5 ± 3.7 g
[4]; 30 mg/kg per os
  Weight supported (g) After treatment 30 min: 48.2 ± 2.8 g
  Weight supported (g) After treatment 60 min: 43.9 ± 3.7 g
  Weight supported (g) Before treatment: 32.7 ± 3.8 g
[5]; 10 mg/kg per os
  Oedema Volume: 1.95 ± 0.07 mL
[5]; 30 mg/kg per os
  Oedema Volume: 1.88 ± 0.07 mL
Rat liver homogenate [2]
  T ½: 8.6 ± 2.9 min
Rat liver homogenate [3]; incubation in rat liver homogenate
  course of nitrite release: very rapid, slight release of nitrites
Rat liver homogenate [3]
  Maximum release (%): 20 ± 1 %
